The test system of data set [1] is FLT3L-DCs. The data set can be described thus: Migration of injected FLT3L-DCs to skin draining lymph nodes. It counts as in vivo, mice. The conditions noted are these: DCs stimulated with R848 1 μg/mL and 41 uM lipid, injected SC, 24 hours; FIG. 5; listed as DGP. The method, then: Murine bone marrow-derived FLT3L-DCs hyperactivation for migration assays. BMDCs were harvested on day 8 post differentiation, washed with PBS, and re-plated in FLT3L-containing I10 at a concentration of 1×10^6 cells/mL. For DC hyperactivation, 500 μl of R848 was added at a final concentration of 1 μg/mL, and 500 μl of lipids (DGPC (Compound 1), DGP (Compound 2), DHC (Compound 7) or DHMC (Compound 8) or 22:0 lyso PC) prepared in 4% KP407 was diluted to a final concentration of 41 uM. Cells were incubated for 24 hours at 37° C. on a tube rotator. Twenty-four hours post-stimulation, cells were washed with PBS and stained with CFSE (1:1000) for 30 min at 37° C. in the dark. DCs were then counted and 1.10×10^6 cells were injected subcutaneously (SC) in 100 ul per mouse. 24 hours post-injection, the skin draining lymph nodes (dLN) were dissected. A single cell suspension was prepared, and cells were stained in PBS with Live Dead Fixable dye (ThermoFisher) for 20 min at 4° C. Cells were then washed again and stained for 20 min at 4° C. in MACS buffer (PBS with 1% FCS and 2 mM EDTA) containing the following fluorescently conjugated antibodies: anti-CD11c and anti-I-A/I-E (MHC-II). […] Data were analyzed using FlowJo software (Tree Star). […]

The test system of data set [2] is human monocyte-derived dendritic cells (moDCs). The data set can be described thus: IL-1β secretion by human moDCs treated with lipid and R848. The following applies: for IL-1β secretion / IL-1β secretion, dependence on the NLRP3 inflammasome: human moDCs; for IL-1β secretion, dependence on the NLRP3 inflammasome: R848 + lipid with or without MCC950, one day, FIG. 3B. In kind it is cell-based.

The test system of data set [3] is human moDCs. The data set is described as follows: Cell viability of human moDCs (CellTiter-Glo). It counts as cell-based. The conditions noted are these: human moDCs, R848 + lipid with MCC950; FIG. 3A. How it is done: After an overnight incubation, cells and culture supernatant were used for downstream readouts. One hundred and fifty microliters of cell supernatant were collected. Viability was measured using the CellTiter-Glo assay (Promega) which measures ATP content from cells. Fifty microliters of CellTiter-Glo reagent were added to 50 μL of cells. Luminescence was quantified on a SpectraMax m5e plate reader using an integration time of 500 milliseconds. Viability data were set relative to control conditions where cells were treated with only R848. To measure IL-1β secretion, the human IL-1β Lumit kit (Promega) was used to assay cell culture supernatant. Culture supernatant samples were incubated with enzyme-linked antibodies in a 384-well plate for 1 hour before addition of luminescent substrate. Samples were measured for luminescence with an integration time of 500 milliseconds. IL-1β concentrations of samples was determined by interpolation from a standard curve using 4-parameter logistic regression analysis. Studies were performed on three different human donor samples, and each biological condition was tested in triplicate. Graphed data represent means from each donor.
Measurement of Cytokine Secretion and Cell Viability. After an overnight incubation, cells and culture supernatant were used for downstream readouts. One hundred and fifty microliters of cell culture supernatant were collected. Viability was measured using the CellTiter-Glo assay (Promega) which measures ATP content from cells. Fifty microliters of CellTiter-Glo reagent were added to 50 μL of cells. Luminescence was quantified on a SpectraMax m5e plate reader using an integration time of 500 milliseconds. Viability data were set relative to control conditions where cells were treated with only R848. To measure IL-1β secretion, the human IL-1β Lumit kit (Promega) was used. […] Samples were measured for luminescence with an integration time of 500 milliseconds. IL-1β concentrations of samples was determined by interpolation from a standard curve using 4-parameter logistic regression analysis. […]
A general note: Cellular ATP, detected with luciferase, serves as a proxy for viable cell number.

Entries after “also recorded” stand apart in the source; their conditions may differ.

Take `CCCCCCCCCCCCCCCCCCCCCCOC[C@@H](O)COP(=O)(O)O` [Compound 2, 1-docosyl-sn-glycerol-3-phosphate]: the “DC migration from the skin to the dLN” value in data set [1] was “significantly enhanced DC migration from the skin to the dLN; also recorded: migration activity was significantly higher than DGPC (Compound 1)”. Besides, the “hyperactivation of human dendritic cells” value in data set [2] (41.25 μM lipid with R848 (Compound 1 also 20.6 μM)) was “hyperactivating lipids; also recorded: hyperactivated dendritic cells”. Further, the IL-1β secretion result was “significant increase in IL-1β” in data set [2] (41.25 μM lipid with R848, FIG. 17); “robustly induced IL-113 secretion” in data set [2] (41.3 uM lipid with R848, FIG. 11); “IL-1β was secreted to a greater extent than 22:0 lyso PC; also recorded: more potent hyperactivator compared to DGPC (Compound 1) and 22:0 lyso PC” in data set [2] (24 hours, lipid (equimolar, in 0.5% KP407) with R848, FIG. 1B, listed as DGP); “produced significantly more IL-1β” in data set [2] (24 hours, lipid in 4% KP407 with R848, FIG. 2B). Besides, the “IL-1β secretion, dependence on the NLRP3 inflammasome” value in data set [2] was “depend on the NLRP3 inflammasome for IL-1β secretion”.
As for `CC(C)(O)c1coc(S(=O)(=O)NC(=O)Nc2c3c(cc4c2CCC4)CCC3)c1` [MCC950, reference compound], in data set [2], the “IL-1β secretion, dependence on the NLRP3 inflammasome” value is “diminished the IL-1β output”. The cell viability result in data set [3] is listed as “did not affect cell viability”.

Source of the values: US20260097111A1, “ETHER LIPIDS FOR HYPERACTIVATION OF MAMMALIAN DENDRITIC CELLS” (priority 2022, published 2026).
